Structures are written as SMILES. A value given as a limit tells only on which side of the number the result lay.

Series [1] deals with HIV-1 (IIIB) in MT-4 cells. Briefly: MT-4 HIV assay. The format is cell-based. To be noted: Human immunodeficiency virus 1, MT4, 120 h; HIV-1 (IIIB), MT-4 cells, 5 days, Cell Titer Glo; read-out: EC50. The gist of the method: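 MT-4 cells infected with HIV-1 IIIB (1:250 stock dilution) were incubated with 1:3 serially diluted compounds in RPMI with 10% FBS for 5 days at 37 °C. Cell Titer Glo luminescence was the readout. Plates included mock-infected wells, no-drug wells and 5 uM AZT controls.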

The next series in a line: in vivo. Particulars: rat, in vivo; for Vd / RAT PO F: male, SD; for Vd / RAT IV CL / RAT IV T1/2: iv; for RAT PO F: 2.5 mg/kg. As for the experimental part:
Each dosing group consisted of 3 male naïve SD Rats. At dosing, the animals weighed between 0.27 to 0.32 kg. The animals were fasted overnight prior to dose administration. The test article was administered by intravenous infusion over 30 min. The rate of infusion was adjusted according to the body weight of each animal to deliver a dose of 0.5 or 1.0 mg/kg. For the oral dosing group, the test article was administered to animals by oral gavage administration. Serial venous blood samples (approximately 0.30 mL each) were taken at predose and 0.25, 0.48, 0.58, 0.75, 1.5, 3, 6, 8, 12 and 24 hours post dose for the IV dosing group animals. Blood samples were taken at predose, 0.25, 0.50, 1, 2, 4, 6, 8, 12 and 24 hours post dose for the oral group animals. The blood samples were collected into Vacutainer™ tubes containing EDTA-K2 as the anti-coagulant and were immediately placed on wet ice pending centrifugation for plasma. An LC/MS/MS method was used to measure the concentration of test compound in plasma. Non-compartmental pharmacokinetic analysis was performed on the plasma concentration-time data.

For series [2] the following is noted: microsomes. The gist of the method:
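Dog, rat and human liver microsomes (0.5 mg/mL) with NADPH-regenerating cofactor; test compound 1 uM, duplicates. Timepoints 2, 12, 25, 45, 65 min; protein removed by centrifugation, supernatant analysed by LC/MS/MS. Clint from t1/2.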

Regarding `COC(=O)N[C@H](C(=O)N[C@@H](Cc1ccc(C#Cc2ccc(N3CC4CCC(C3)N4C3COC3)nc2)cc1)[C@@H](O)CN(Cc1ccc(-c2ccccn2)cc1)NC(=O)[C@@H](NC(=O)OC)C(C)(C)C(F)(F)F)C(C)(C)C(F)(F)F` [Example 56, Methyl ((5S,8S,9S,14S)-16,16,16-trifluoro-9-hydroxy-15,15-dimethyl-8-(4-((6-(8-(oxetan-3-yl)-3,8-diazabicyclo[3.2.1]octan-3-yl)pyridin-3-yl)ethynyl)benzyl)-3,6,13-trioxo-11-(4-(pyridin-2-yl)benzyl)-5-(1,1,1-trifluoro-2-methylpropan-2-yl)-2-oxa-4,7,11,12-tetraazahexadecan-14-yl)carbamate], the concentration giving a half-maximal response (EC50) in series [1] amounted to 3.59 nM. Also, in “in vivo”, the Vd came to 7.44 L/kg, the “RAT PO F” value was 34.1%, the “RAT IV CL” value came to 14.2 mL/min/kg and the “RAT IV T1/2” value was 8.77 h. In series [2], the “Dog. Pred. Cl.” value is 1.47 L/H/kg, the “Human Pred Cl.” value is listed as 0.17 L/H/kg and the “Rat. Pred. Cl.” value is 0.19 L/H/kg.

Turning to `COC(=O)N[C@H](C(=O)N[C@@H](Cc1ccc(C#Cc2ccc(N3CC4CCC(C3)N4C3COC3)nc2)cc1)[C@@H](O)CN(Cc1c(F)cc(-c2cc3n(n2)CCOC3)cc1F)NC(=O)[C@@H](NC(=O)OC)C(C)(C)C(F)(F)F)C(C)(C)C(F)(F)F` [Example 57, Methyl ((5S,8S,9S,14S)-11-(4-(6,7-dihydro-4H-pyrazolo[5,1-c][1,4]oxazin-2-yl)-2,6-difluorobenzyl)-16,16,16-trifluoro-9-hydroxy-15,15-dimethyl-8-(4-((6-(8-(oxetan-3-yl)-3,8-diazabicyclo[3.2.1]octan-3-yl)pyridin-3-yl)ethynyl)benzyl)-3,6,13-trioxo-5-(1,1,1-trifluoro-2-methylpropan-2-yl)-2-oxa-4,7,11,12-tetraazahexadecan-14-yl)carbamate], the EC50 in series [1] came to 2.91 nM. Moreover, in “in vivo”, the Vd was 2.45 L/kg, the “RAT PO F” value is on record as 23.2%, the “RAT IV CL” value was 6 mL/min/kg and the “RAT IV T1/2” value was 6.28 h. In series [2], the “Human Pred Cl.” value is on record as below 0.11 L/H/kg and the “Rat. Pred. Cl.” value is reported as below 0.18 L/H/kg.

Consider `COC(=O)N[C@H](C(=O)N[C@@H](Cc1ccc(C#Cc2cnc(N3CC4CCC(C3)N4C3COC3)nc2)cc1)[C@@H](O)CN(Cc1c(F)cc(-c2cnn(C(F)F)c2)cc1F)NC(=O)[C@@H](NC(=O)OC)C(C)(C)C(F)(F)F)C(C)(C)C(F)(F)F` [Example 61, Methyl ((5S,8S,9S,14S)-11-(4-(1-(difluoromethyl)-1H-pyrazol-4-yl)-2,6-difluorobenzyl)-16,16,16-trifluoro-9-hydroxy-15,15-dimethyl-8-(4-((2-(8-(oxetan-3-yl)-3,8-diazabicyclo[3.2.1]octan-3-yl)pyrimidin-5-yl)ethynyl)benzyl)-3,6,13-trioxo-5-(1,1,1-trifluoro-2-methylpropan-2-yl)-2-oxa-4,7,11,12-tetraazahexadecan-14-yl)carbamate], for which the EC50 in series [1] turned out to be 4.11 nM. In addition, in the series “in vivo”, the Vd stood at 6.5 L/kg, the “RAT PO F” value is 18.5%, the “RAT IV CL” value is 7.17 mL/min/kg and the “RAT IV T1/2” value is 12.9 h. For the same molecule, in series [2], the “Human Pred Cl.” value is listed as below 0.11 L/H/kg and the “Rat. Pred. Cl.” value is on record as below 0.18 L/H/kg.

Consider `COC(=O)N[C@H](C(=O)N[C@@H](Cc1ccc(C#Cc2ccc(N3CC4CCC(C3)N4C3COC3)nc2)cc1)[C@@H](O)CN(Cc1c(F)cc(-c2cnn(C(F)F)c2)cc1F)NC(=O)[C@@H](NC(=O)OC)C(C)(C)C(F)(F)F)C(C)(C)C(F)(F)F` [Example 71, Methyl ((5S,8S,9S,14S)-11-(4-(1-(difluoromethyl)-1H-pyrazol-4-yl)-2,6-difluorobenzyl)-16,16,16-trifluoro-9-hydroxy-15,15-dimethyl-8-(4-((6-(8-(oxetan-3-yl)-3,8-diazabicyclo[3.2.1]octan-3-yl)pyridin-3-yl)ethynyl)benzyl)-3,6,13-trioxo-5-(1,1,1-trifluoro-2-methylpropan-2-yl)-2-oxa-4,7,11,12-tetraazahexadecan-14-yl)carbamate], for which, in series [1], the half-maximal effective concentration (EC50) turned out to be 3.37 nM. For the same molecule, in the series “in vivo”, the Vd came to 7.26 L/kg, the “RAT PO F” value is 24.6%, the “RAT IV CL” value was 15 mL/min/kg and the “RAT IV T1/2” value was determined as 9.27 h. In series [2], the “Dog. Pred. Cl.” value came to 0.47 L/H/kg, the “Human Pred Cl.” value is given as below 0.11 L/H/kg and the “Rat. Pred. Cl.” value is on record as below 0.18 L/H/kg.

On to `COC(=O)N[C@H](C(=O)N[C@@H](Cc1ccc(C#Cc2ccc(N3CC4CCC(C3)N4C3COC3)nc2)cc1)[C@@H](O)CN(Cc1c(F)cc(-c2ccccn2)cc1Cl)NC(=O)[C@@H](NC(=O)OC)C(C)(C)C(F)(F)F)C(C)(C)C(F)(F)F` [Example 74, Methyl ((5S,8S,9S,14S)-11-(2-chloro-6-fluoro-4-(pyridin-2-yl)benzyl)-16,16,16-trifluoro-9-hydroxy-15,15-dimethyl-8-(4-((6-(8-(oxetan-3-yl)-3,8-diazabicyclo[3.2.1]octan-3-yl)pyridin-3-yl)ethynyl)benzyl)-3,6,13-trioxo-5-(1,1,1-trifluoro-2-methylpropan-2-yl)-2-oxa-4,7,11,12-tetraazahexadecan-14-yl)carbamate], for which the EC50 in series [1] stood at 6.79 nM. Besides, in the series “in vivo”, the distribution volume (Vd) is 5.07 L/kg, the “RAT PO F” value turned out to be 35.8%, the “RAT IV CL” value was found to be 6.5 mL/min/kg and the “RAT IV T1/2” value is 11.6 h. For the same molecule, in series [2], the “Dog. Pred. Cl.” value is listed as 1.53 L/H/kg, the “Human Pred Cl.” value is reported as 0.17 L/H/kg and the “Rat. Pred. Cl.” value amounted to 0.2 L/H/kg.

In the case of `COC(=O)N[C@H](C(=O)N[C@@H](Cc1ccc(C#Cc2ccc(N3CC4CCC(C3)N4C3COC3)nc2)cc1)[C@@H](O)CN(Cc1c(F)cc(-c2cn(C(F)F)cn2)cc1F)NC(=O)[C@@H](NC(=O)OC)C(C)(C)C(F)(F)F)C(C)(C)C(F)(F)F` [Example 79, Methyl ((5S,8S,9S,14S)-11-(4-(1-(difluoromethyl)-1H-imidazol-4-yl)-2,6-difluorobenzyl)-16,16,16-trifluoro-9-hydroxy-15,15-dimethyl-8-(4-((6-(8-(oxetan-3-yl)-3,8-diazabicyclo[3.2.1]octan-3-yl)pyridin-3-yl)ethynyl)benzyl)-3,6,13-trioxo-5-(1,1,1-trifluoro-2-methylpropan-2-yl)-2-oxa-4,7,11,12-tetraazahexadecan-14-yl)carbamate], the half-maximal effective concentration (EC50) in series [1] worked out at 3.53 nM. Also, in the series “in vivo”, the Vd is 4.07 L/kg, the “RAT PO F” value is 13.1%, the “RAT IV CL” value is 12.8 mL/min/kg and the “RAT IV T1/2” value amounted to 5.13 h. Besides, in series [2], the “Human Pred Cl.” value is below 0.11 L/H/kg and the “Rat. Pred. Cl.” value is given as below 0.18 L/H/kg.

As to `COC(=O)N[C@H](C(=O)N[C@@H](Cc1ccc(C#Cc2ccc(N3CC4CCC(C3)N4C3COC3)nc2)cc1)[C@@H](O)CN(Cc1c(F)cc(-c2ccccn2)cc1F)NC(=O)[C@@H](NC(=O)OC)C(C)(C)C(F)(F)F)C(C)(C)C(F)(F)F` [Example 130, Methyl ((5S,8S,9S,14S)-11-(2,6-difluoro-4-(pyridin-2-yl)benzyl)-16,16,16-trifluoro-9-hydroxy-15,15-dimethyl-8-(4-((6-(8-(oxetan-3-yl)-3,8-diazabicyclo 3.2.1 octan-3-yl)pyridin-3-yl)ethynyl)benzyl)-3,6,13-trioxo-5-(1,1,1-trifluoro-2-methylpropan-2-yl)-2-oxa-4,7,11,12-tetraazahexadecan-14-yl)carbamate], the EC50 in series [1] stood at 3.41 nM. In addition, in “in vivo”, the Vd amounted to 5.27 L/kg, the “RAT PO F” value is 55.7%, the “RAT IV CL” value was 6.5 mL/min/kg and the “RAT IV T1/2” value was determined as 11.5 h. Also, in series [2], the “Human Pred Cl.” value was 0.32 L/H/kg and the “Rat. Pred. Cl.” value was below 0.18 L/H/kg.

Take `COC(=O)N[C@H](C(=O)N[C@@H](Cc1ccc(C#Cc2ccc(N3CC4COCC(C3)N4C3COC3)nc2)cc1)[C@@H](O)CN(Cc1c(F)cc(-c2ccn(C(F)F)n2)cc1F)NC(=O)[C@@H](NC(=O)OC)C(C)(C)C(F)(F)F)C(C)(C)C(F)(F)F` [Example 180, Methyl ((5S,8S,9S,14S)-11-(4-(1-(difluoromethyl)-1H-pyrazol-3-yl)-2,6-difluorobenzyl)-16,16,16-trifluoro-9-hydroxy-15,15-dimethyl-8-(4-((6-(9-(oxetan-3-yl)-3-oxa-7,9-diazabicyclo[3.3.1]nonan-7-yl)pyridin-3-yl)ethynyl)benzyl)-3,6,13-trioxo-5-(1,1,1-trifluoro-2-methylpropan-2-yl)-2-oxa-4,7,11,12-tetraazahexadecan-14-yl)carbamate]: in series [1], the EC50 turned out to be 3.69 nM. Besides, in “in vivo”, the Vd amounted to 0.52 L/kg, the “RAT PO F” value is recorded as 4.29%, the “RAT IV CL” value was 6.5 mL/min/kg and the “RAT IV T1/2” value came out at 2.81 h. Moreover, in series [2], the “Human Pred Cl.” value is given as below 0.11 L/H/kg and the “Rat. Pred. Cl.” value is given as below 0.18 L/H/kg.
